Data published in ChEMBL document CHEMBL2440050 (ACS Med Chem Lett, 2013).
One block for each compound: values may come before it.

How the values were obtained:
L1210 [1] = experiment: Growth inhibition of mouse L1210 cells after 72 hrs by phosphatase assay; format: functional, cell-based; details: L1210, 72 h
HCT-116/VM46 [2] = experiment: Ratio of vinblastine IC50 to compound IC50 for vinblastine-resistant human HCT116/VM46 cells overexpressing P-gp by MTS assay; format: functional
PA-1 [3] = experiment: Ratio of vinblastine IC50 to compound IC50 for human PA1 cells by MTS assay; format: functional
ZR-75-1 [4] = experiment: Ratio of vinblastine IC50 to compound IC50 for human ZR-75-1 cells by MTS assay; format: functional
T47D [5] = experiment: Ratio of vinblastine IC50 to compound IC50 for human T47D cells by MTS assay; format: functional
[6] = Ratio of vinblastine IC50 to compound IC50 for human SW403 cells by MTS assay; format: functional
MDA-MB-468 [7] = experiment: Ratio of vinblastine IC50 to compound IC50 for human MDA-MB-468 cells by MTS assay; format: functional
LS174T = experiment: Ratio of vinblastine IC50 to compound IC50 for human LS 174T cells by MTS assay; format: functional
[8] = Ratio of vinblastine IC50 to compound IC50 for human LNCaP-FGC cells by MTS assay; format: functional
[9] = Ratio of vinblastine IC50 to compound IC50 for human KPL4 cells by MTS assay; format: functional
HCT-116 [10] = experiment: Ratio of vinblastine IC50 to compound IC50 for vinblastine-sensitive human HCT116 cells by MTS assay; format: functional
HCC70 [11] = experiment: Ratio of vinblastine IC50 to compound IC50 for human HCC70 cells by MTS assay; format: functional
HCC1143 [12] = experiment: Ratio of vinblastine IC50 to compound IC50 for human HCC1143 cells by MTS assay; format: functional
NCI-H520 [13] = experiment: Ratio of vinblastine IC50 to compound IC50 for human NCI-H520 cells by MTS assay; format: functional
AU565 [14] = experiment: Ratio of vinblastine IC50 to compound IC50 for human AU565 cells by MTS assay; format: functional
HCT-116 [15] = experiment: Ratio of IC50 for vinblastine-resistant human HCT116/VM46 cells overexpressing P-gp to IC50 for vinblastine-sensitive human HCT116 cells by phosphatase assay; format: functional
HCT-116/VM46 [16] = experiment: Growth inhibition of vinblastine-resistant human HCT116/VM46 cells overexpressing P-gp after 72 hrs by MTS assay; format: functional, cell-based; details: HCT-116/VM46, 72 h
PA-1 [17] = experiment: Growth inhibition of human PA1 cells after 72 hrs by MTS assay; format: functional, cell-based; details: PA-1, 72 h
T47D [18] = experiment: Growth inhibition of human T47D cells after 72 hrs by MTS assay; format: functional, cell-based
ZR-75-1 [19] = experiment: Growth inhibition of human ZR-75-1 cells after 72 hrs by MTS assay; format: functional, cell-based; details: ZR-75-1, 72 h
[20] = Growth inhibition of human SW403 cells after 72 hrs by MTS assay; format: functional, cell-based; details: SW-403, 72 h
MDA-MB-468 [21] = experiment: Growth inhibition of human MDA-MB-468 cells after 72 hrs by MTS assay; format: functional, cell-based; details: MDA-MB-468, 72 h
MCF7 = experiment: Growth inhibition of human MCF7 cells after 72 hrs by MTS assay; format: functional, cell-based; details: MCF7, 72 h
[22] = Growth inhibition of human LS 174T cells after 72 hrs by MTS assay; format: functional, cell-based; details: LS174T
[23] = Growth inhibition of human LNCaP-FGC cells after 72 hrs by MTS assay; format: functional, cell-based; details: LNCaP-Clone-FGC
[24] = Growth inhibition of human KPL4 cells after 72 hrs by MTS assay; format: functional, cell-based; details: KPL4, 72 h
HCC70 [25] = experiment: Growth inhibition of human HCC70 cells after 72 hrs by MTS assay; format: functional, cell-based; details: HCC70, 72 h
HCT-116 [26] = experiment: Growth inhibition of vinblastine-sensitive human HCT116 cells after 72 hrs by MTS assay; format: functional, cell-based; details: HCT-116, 72 h
HCC1143 [27] = experiment: Growth inhibition of human HCC1143 cells after 72 hrs by MTS assay; format: functional, cell-based; details: HCC1143, 72 h
NCI-H520 [28] = experiment: Growth inhibition of human NCI-H520 cells after 72 hrs by MTS assay; format: functional, cell-based; details: NCI-H520, 72 h
AU565 [29] = experiment: Growth inhibition of human AU565 cells after 72 hrs by MTS assay; format: functional, cell-based; details: AU565, 72 h
HCT-116 [30] = experiment: Ratio of vinblastine IC50 to compound IC50 for vinblastine-sensitive human HCT116 cells by phosphatase assay; format: functional
HCT-116/VM46 [31] = experiment: Ratio of vinblastine IC50 to compound IC50 for vinblastine-resistant human HCT116/VM46 cells overexpressing P-gp by phosphatase assay; format: functional
L1210 [32] = experiment: Ratio of vinblastine IC50 to compound IC50 for mouse L1210 cells by phosphatase assay; format: functional
HCT-116 [33] = experiment: Growth inhibition of vinblastine-sensitive human HCT116 cells after 72 hrs by phosphatase assay; format: functional, cell-based; details: HCT-116, 72 h
HCT-116/VM46 [34] = experiment: Growth inhibition of vinblastine-resistant human HCT116/VM46 cells overexpressing P-gp after 72 hrs by phosphatase assay; format: functional, cell-based; details: HCT-116/VM46, 72 h
Tubulin (Sus scrofa) = Tubulin (Sus scrofa) (UniProt P02554+P02550); experiment: Displacement of [3H]-VBL from porcine tubulin after 60 mins relative to control; format: protein assay
Sequence of Tubulin (Sus scrofa) (P02550 whole entry, looked up): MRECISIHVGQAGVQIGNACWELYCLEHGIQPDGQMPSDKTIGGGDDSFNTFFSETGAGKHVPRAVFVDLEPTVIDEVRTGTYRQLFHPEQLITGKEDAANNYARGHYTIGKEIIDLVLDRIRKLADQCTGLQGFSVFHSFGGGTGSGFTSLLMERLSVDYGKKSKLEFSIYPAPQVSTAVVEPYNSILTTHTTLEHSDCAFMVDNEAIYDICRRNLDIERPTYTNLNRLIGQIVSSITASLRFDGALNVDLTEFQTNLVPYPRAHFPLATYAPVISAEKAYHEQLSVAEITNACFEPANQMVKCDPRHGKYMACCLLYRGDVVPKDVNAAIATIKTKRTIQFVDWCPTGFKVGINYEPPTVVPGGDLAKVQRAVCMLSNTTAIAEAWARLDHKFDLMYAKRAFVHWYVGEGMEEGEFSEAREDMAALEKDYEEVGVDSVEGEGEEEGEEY
Sequence of Tubulin (Sus scrofa) (P02554 whole entry, looked up): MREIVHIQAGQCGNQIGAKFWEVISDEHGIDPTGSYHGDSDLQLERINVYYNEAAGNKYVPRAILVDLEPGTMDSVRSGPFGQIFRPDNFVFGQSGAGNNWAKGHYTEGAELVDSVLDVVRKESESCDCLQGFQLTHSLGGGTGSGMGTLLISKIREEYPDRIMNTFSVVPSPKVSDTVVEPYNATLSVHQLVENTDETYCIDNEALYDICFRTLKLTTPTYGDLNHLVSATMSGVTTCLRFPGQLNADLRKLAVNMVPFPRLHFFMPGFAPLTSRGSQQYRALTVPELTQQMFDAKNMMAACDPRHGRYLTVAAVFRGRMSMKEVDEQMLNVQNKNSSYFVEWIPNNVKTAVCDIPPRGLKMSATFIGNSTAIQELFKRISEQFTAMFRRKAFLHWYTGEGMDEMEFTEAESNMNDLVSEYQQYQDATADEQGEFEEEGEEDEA

IC50 (L1210 [1]): 5.5 nM
SMILES: CC[C@]1(NC(=O)N2CCCCC2)C[C@H]2CN(CCc3c([nH]c4ccccc34)[C@@](C(=O)OC)(c3cc4c(cc3OC)N(C)[C@H]3[C@@](O)(C(=O)OC)[C@H](OC(C)=O)[C@]5(CC)C=CCN6CC[C@]43[C@@H]65)C2)C1

IC50 (L1210 [1]): 5.9 nM
SMILES: CC[C@]1(NC(=O)NC)C[C@H]2CN(CCc3c([nH]c4ccccc34)[C@@](C(=O)OC)(c3cc4c(cc3OC)N(C)[C@H]3[C@@](O)(C(=O)OC)[C@H](OC(C)=O)[C@]5(CC)C=CCN6CC[C@]43[C@@H]65)C2)C1

IC50 (HCT-116/VM46 [16]): 6.4 nM
IC50 (T47D [18]): 0.51 nM
IC50 (MDA-MB-468 [21]): 0.4 nM
IC50 (MCF7): > 12.5 nM
IC50 (HCT-116 [26]): 0.22 nM
IC50 (HCC1143 [27]): 0.13 nM
IC50 (NCI-H520 [28]): 0.17 nM
IC50 (HCT-116 [33]): 0.52 nM
IC50 (HCT-116/VM46 [34]): 8.4 nM
IC50 (L1210 [1]): 0.52 nM
SMILES: CC[C@]1(NC(=O)N2CC=CCC2)C[C@H]2CN(CCc3c([nH]c4ccccc34)[C@@](C(=O)OC)(c3cc4c(cc3OC)N(C)[C@H]3[C@@](O)(C(=O)OC)[C@H](OC(C)=O)[C@]5(CC)C=CCN6CC[C@]43[C@@H]65)C2)C1
Ratio IC50 (HCT-116/VM46 [2]): 10
Ratio IC50 (PA-1 [3]): 10
Ratio IC50 (ZR-75-1 [4]): 10
Ratio IC50 (T47D [5]): 10
Ratio IC50 [6]: 10
Ratio IC50 (MDA-MB-468 [7]): 10
Ratio IC50 (LS174T): 10
Ratio IC50 [8]: 10
Ratio IC50 [9]: 10
Ratio IC50 (HCT-116 [10]): 10
Ratio IC50 (HCC70 [11]): 10
Ratio IC50 (HCC1143 [12]): 10
Ratio IC50 (NCI-H520 [13]): 10
Ratio IC50 (AU565 [14]): 10
Ratio IC50 (HCT-116 [15]): 13
IC50 (PA-1 [17]): 0.11 nM
IC50 (ZR-75-1 [19]): 0.71 nM
IC50 [20]: 0.5 nM
IC50 [22]: 0.46 nM
IC50 [23]: 0.45 nM
IC50 [24]: 0.06 nM
IC50 (HCC70 [25]): 0.21 nM
IC50 (AU565 [29]): 0.15 nM
Ratio IC50 (HCT-116 [30]): 10
Ratio IC50 (HCT-116/VM46 [31]): 80
Ratio IC50 (L1210 [32]): 10

IC50 (HCT-116 [33]): 0.72 nM
IC50 (HCT-116/VM46 [34]): 50 nM
IC50 (L1210 [1]): 0.7 nM
SMILES: CC[C@]1(NC(=O)N2CCCC2)C[C@H]2CN(CCc3c([nH]c4ccccc34)[C@@](C(=O)OC)(c3cc4c(cc3OC)N(C)[C@H]3[C@@](O)(C(=O)OC)[C@H](OC(C)=O)[C@]5(CC)C=CCN6CC[C@]43[C@@H]65)C2)C1

IC50 (HCT-116/VM46 [16]): > 110 nM
IC50 (T47D [18]): 5 nM
IC50 (MDA-MB-468 [21]): 4.6 nM
IC50 (MCF7): > 110 nM
IC50 (HCC1143 [27]): 3.8 nM
IC50 (NCI-H520 [28]): 4.5 nM
Activity (Tubulin (Sus scrofa)): 50%
SMILES: CC[C@]1(O)C[C@@H]2CN(CCc3c([nH]c4ccccc34)[C@@](C(=O)OC)(c3cc4c(cc3OC)N(C)[C@H]3[C@@](O)(C(=O)OC)[C@H](OC(C)=O)[C@]5(CC)C=CCN6CC[C@]43[C@@H]65)C2)C1 [VINBLASTINE]
IC50 (PA-1 [17]): 4.6 nM
IC50 (ZR-75-1 [19]): 8 nM
IC50 [20]: 7.9 nM
IC50 [22]: 19.6 nM
IC50 [23]: 5.1 nM
IC50 [24]: 2.9 nM
IC50 (HCC70 [25]): 3.5 nM
IC50 (AU565 [29]): 4 nM

IC50 (HCT-116 [33]): 3.4 nM
IC50 (HCT-116/VM46 [34]): 710 nM
IC50 (L1210 [1]): 7.7 nM
SMILES: CC[C@]1(NC(=O)N2CCN(C)CC2)C[C@H]2CN(CCc3c([nH]c4ccccc34)[C@@](C(=O)OC)(c3cc4c(cc3OC)N(C)[C@H]3[C@@](O)(C(=O)OC)[C@H](OC(C)=O)[C@]5(CC)C=CCN6CC[C@]43[C@@H]65)C2)C1

IC50 (HCT-116 [33]): 3.1 nM
IC50 (HCT-116/VM46 [34]): 55 nM
IC50 (L1210 [1]): 5.3 nM
SMILES: CC[C@]1(NC(=O)N2CCC(c3ccccc3)CC2)C[C@H]2CN(CCc3c([nH]c4ccccc34)[C@@](C(=O)OC)(c3cc4c(cc3OC)N(C)[C@H]3[C@@](O)(C(=O)OC)[C@H](OC(C)=O)[C@]5(CC)C=CCN6CC[C@]43[C@@H]65)C2)C1
